Read-outs that look alike come from different tables or passages of the source.
Legend:
human RORγ = molecular target: T1, human RORγ (Homo sapiens, UniProt P51449); assay: In vitro assay of inhibitory effect against RORγ transcriptional activity (GAL4-hRORγ LBD luciferase reporter gene assay in CHO cells); format: cell-based
T1 construct: human RORγ, from Ser253 to Lys518; expressed in transfected cells; host or cells: CHO cells (Chinese hamster ovary), transient co-transfection with pG5-Luc
T1 sequence (P51449 253-518): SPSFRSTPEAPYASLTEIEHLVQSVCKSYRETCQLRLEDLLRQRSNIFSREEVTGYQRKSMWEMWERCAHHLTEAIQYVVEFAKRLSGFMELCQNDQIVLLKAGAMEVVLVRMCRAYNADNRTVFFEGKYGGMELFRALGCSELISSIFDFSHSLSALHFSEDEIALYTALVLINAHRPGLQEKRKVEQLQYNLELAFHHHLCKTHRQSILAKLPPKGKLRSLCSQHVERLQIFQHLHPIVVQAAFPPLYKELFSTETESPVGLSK
Description: (§1) In Vitro Assay of Inhibitory Effect Against RORγ Transcriptional Activity
(§2) Inhibitory effect of a test article on transcriptional activity of RORγ was measured by means of the following reporter gene assay.
(§3) cDNA encoding human and mouse RORγ ligand binding domain (LBD) were obtained based on the sequences of human RORγ (Genebank registered number NM_005060.3) and mouse RORγ (Genebank registered number NM_011281.2) (LBD sequence: human RORγ, from Ser253 to Lys518; mouse RORγ, from Ile251 to Lys516).
(§4) The LBD cDNA of human or mouse RORγ was inserted into pFA-CMV vector (Strategene), which expresses GAL4-DNA binding domain fusion protein. The resulting plasmids are hereinafter referred to as GAL4-hRORγ plasmid and GAL4-mRORγ plasmid, respectively.
(§5) GAL4-hRORγ plasmid or GAL4-mRORγ plasmid was transiently co-transfected into Chinese hamster ovary cells (CHO cells) with pG5-Luc (Promega), a reporter plasmid expressing firefly luciferase depending on GAL4.
(§6) TransIT (Registered trademark) CHO transfection reagent (Mirus) was used to co-transfect GAL4-hRORγ plasmid or GAL4-mRORγ plasmid into CHO cells with pG5-Luc plasmid. One day before the assay, CHO cells were suspended in HAM F-12 Nutrient medium containing 10 v/v % fetal bovine serum and seeded at 6×10^6 cells per 175 cm^2 cell culture flask. Fifty four micro litters of TransIT (Registered trademark) CHO reagent was added into a 15 ml tube containing 1.16 mL of HAM F-12 Nutrient medium without fetal bovine serum, and mixed and incubated at room temperature for 10 min. Thirty six micro litters of plasmid solution containing the GAL4-hRORγ plasmid (400 ng), pG5-Luc plasmid (9000 ng) and pcDNA3 plasmid (8600 ng) were added into the tube and mixed gently. In case of mouse assay, a plasmid solution containing the GAL4-mRORγ plasmid (250 ng), pG5-Luc plasmid (9000 ng) and pcDNA3 plasmid (8750 ng) was added, instead. The mixture was incubated at room temperature for 10 min. Nine micro litters of CHO Mojo Reagent were then added into each tube and mixed gently. The mixture was incubated at room temperature for 10 min. The resultant transfection reagent was applied to the cell culture. After incubation at 37° C., 5% CO2 for 4 hours, the plasmid-transfected CHO cells were harvested with a trypsin treatment. The collected cells were resuspended in HAM F-12 Nutrient medium supplemented with 10 v/v % fetal bovine serum and plated into a 384-well-white plate at 8,000 cells/50 μL/well. The plate was incubated at room temperature for 1 hour and then further incubated at 37° C., 5% CO2 for 3 hours. The test articles were dissolved in dimethylsulfoxide (DMSO) to obtain a concentration of 10 mM. The resulting solution was diluted with a medium just before use and added to the cells in the plate to prepare 8 different concentrations of the test article. The final concentration of DMSO was 0.2 v/v %. After the addition of the test articles, the cells were incubated at 37° C., 5% CO2 for 2 days.
(§7) RORγ transcriptional activity was detected as the intracellular luciferase activity using SteadyLite HTS Reporter Gene Assay System (Perkin Elmer). StedyLite Reagent was diluted five-fold into a solution containing Extension reagent (10 mM Tricine, 0.2% w/v BSA, 0.02% v/v Tween-20) to obtain the luciferase substrate solution. After the measurement of the cell viability using Resazurin, the culture media in the plate were removed, and then the luciferase substrate solution was added into each well. After the incubation at room temperature for 10 minutes, luminescence of each well was measured by a microplate reader. The luciferase activity derived from the luminescence count in the vehicle-control well treated with 0.2% DMSO alone was defined as 100%, and the luciferase activity in the test article was calculated as a percentage (%-of-control) based on the value of the vehicle-control. EC50 value of test article was calculated by curve fitting with GraphPad Prism. […]

mouse RORγ = molecular target: T2, mouse RORγ (Mus musculus, UniProt P51450); assay: In vitro assay of inhibitory effect against RORγ transcriptional activity (GAL4-mRORγ LBD luciferase reporter gene assay in CHO cells); format: cell-based
T2 construct: mouse RORγ, from Ile251 to Lys516; expressed in transfected cells; host or cells: CHO cells (Chinese hamster ovary), transient co-transfection with pG5-Luc
T2 sequence (P51450 251-516): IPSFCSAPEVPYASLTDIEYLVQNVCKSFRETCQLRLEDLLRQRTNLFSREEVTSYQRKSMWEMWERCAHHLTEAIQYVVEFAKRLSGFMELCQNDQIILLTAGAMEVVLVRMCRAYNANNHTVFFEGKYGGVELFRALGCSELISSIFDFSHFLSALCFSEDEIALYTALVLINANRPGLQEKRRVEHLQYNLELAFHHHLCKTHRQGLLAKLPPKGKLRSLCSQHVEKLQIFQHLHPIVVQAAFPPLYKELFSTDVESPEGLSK
Description: as §1, §2, §3, §4, §5, §6, §7

[1] = GAL4-hRORγ LBD / pG5-Luc in CHO cells, 2 days incubation
[2] = GAL4-mRORγ LBD / pG5-Luc in CHO cells, 2 days incubation
[3] = GAL4-hRORγ LBD luciferase reporter, CHO cells, read-out: LUC EC50 hRORγ
[4] = value in parentheses beside the EC50 bound, vehicle-control 0.2% DMSO alone = 100%
[5] = GAL4-mRORγ LBD luciferase reporter, CHO cells, read-out: LUC EC50 mRORγ

Structure (SMILES) | EC50 (human RORγ; [3]) | EC50 (mouse RORγ; [5]) | other results
CC(C)N1C=C(C(C)(C)CCC(=O)O)C(C)(c2ccc(CCC(C)(C)C)c(Cl)c2)NC1=O (single isomer, unassigned) [Example 172] |  |  | EC50 (human RORγ; [1]): 13 nM; EC50 (mouse RORγ; [2]): 18 nM
CC(C)C1=CN(CCC(=O)O)C(=O)N[C@@]1(C)c1ccc(C2CC2C(C)C)c(Cl)c1 (single isomer, unassigned) [Example 174] |  |  | EC50 (human RORγ; [1]): 14 nM; EC50 (mouse RORγ; [2]): 11 nM
CC(C)(C)CCc1ccc(C2(C)NC(=O)N([C@H]3C[C@H](C(=O)O)C3)C=C2C(C)(C)CCCO)cc1Cl (single isomer, unassigned) [Example 180] |  |  | EC50 (human RORγ; [1]): 32 nM; EC50 (mouse RORγ; [2]): 50 nM
COC(=O)[C@H]1C[C@H](N2C=C(C(C)(C)CCC(=O)O)C(C)(c3ccc(CCC(C)(C)C)c(Cl)c3)NC2=O)C1 (single isomer, unassigned) [Example 181] |  |  | EC50 (human RORγ; [1]): 18 nM; EC50 (mouse RORγ; [2]): 32 nM
CC(C)(C)CCc1ccc(C2(C)NC(=O)N([C@H]3C[C@H](CO)C3)C=C2C(C)(C)CCC(=O)O)cc1Cl (single isomer, unassigned) [Example 182] |  |  | EC50 (human RORγ; [1]): 27 nM; EC50 (mouse RORγ; [2]): 76 nM
CC(C)(C)CCc1ccc(C2(C)NC(=O)N(C3CCC3)C=C2C(C)(C)CCC(=O)O)cc1Cl (single isomer, unassigned) [Example 184] |  |  | EC50 (human RORγ; [1]): 11 nM; EC50 (mouse RORγ; [2]): 22 nM
COC(=O)[C@H]1C[C@H](N2C=C(C(C)(C)CCCO)[C@@](C)(c3ccc(CCC(C)(C)C)c(Cl)c3)NC2=O)C1 (single isomer, unassigned) [Example 190] | > 8000 nM | > 8000 nM | hRORγ luciferase activity, %-of-control (human RORγ; [4]): (74%); mRORγ luciferase activity, %-of-control (mouse RORγ; [4]): (66%)
COC(=O)[C@H]1C[C@H](N2C=C(C(C)(C)CCCO)[C@](C)(c3ccc(CCC(C)(C)C)c(Cl)c3)NC2=O)C1 (single isomer, unassigned) [Example 191] | 45 nM | 71 nM | 
CC(C)C1=CN(C23C4C5C2C2C3C4C52C(=O)O)C(=O)N[C@@]1(C)c1ccc(CCC(C)(C)C)c(Cl)c1 (single isomer, unassigned) [Example 222] | 20 nM | 40 nM | 
CC(C)C1=CN(C2CN(C(=O)OC(C)(C)C)CC2C(=O)O)C(=O)N[C@@]1(C)c1ccc(CCC(C)(C)C)c(Cl)c1 (single isomer, unassigned) [Example 237] | 719 nM | 673 nM | 
CC(C)C1=CN(C2CNCC2C(=O)O)C(=O)N[C@@]1(C)c1ccc(CCC(C)(C)C)c(Cl)c1 (single isomer, unassigned) [Example 238] | 715 nM | 666 nM | 
CC(=O)N1CC(C(=O)O)C(N2C=C(C(C)C)[C@](C)(c3ccc(CCC(C)(C)C)c(Cl)c3)NC2=O)C1 (single isomer, unassigned) [Example 239] | 4560 nM | 3060 nM | 
CC(C)C1=CN(C2CN(S(C)(=O)=O)CC2C(=O)O)C(=O)N[C@@]1(C)c1ccc(CCC(C)(C)C)c(Cl)c1 (single isomer, unassigned) [Example 240] | 108 nM | 147 nM | 
CCOC(=O)C1CNCC1N1C=C(C(C)C)[C@](C)(c2ccc(CCC(C)(C)C)c(Cl)c2)NC1=O (single isomer, unassigned) [Example 244] | 176 nM | 269 nM | 
CCOC(=O)C1CNCC1N1C=C(C(C)C)[C@](C)(c2ccc(CCC(C)(C)C)c(Cl)c2)NC1=O (single isomer, unassigned) [Example 245] | 261 nM | 301 nM | 
COC1CC(C2=CN(c3ccc(C(=O)O)cc3)C(=O)N[C@@]2(C)c2ccc(CCC(C)(C)C)c(Cl)c2)C1 (single isomer, unassigned) [Example 276] | 28 nM | 47 nM | 
COC1CC(C2=CN(c3ccc(C(=O)O)cc3)C(=O)N[C@@]2(C)c2ccc(CCC(C)(C)C)c(Cl)c2)C1 (single isomer, unassigned) [Example 277] | 23 nM | 38 nM | 

Second part, led by results:

EC50 (human RORγ; [3]) | EC50 (mouse RORγ; [5]) | Structure (SMILES) | other results
15 nM | 19 nM | CC(C)C1=CN(C2CC3(CC(C(=O)O)C3)C2)C(=O)N[C@@]1(C)c1ccc(CCC(C)(C)C)c(Cl)c1 (single isomer, unassigned) [Example 232] | 
69 nM | 72 nM | CC(C)C1=CN(C2CC3(CC(C(=O)O)C3)C2)C(=O)N[C@@]1(C)c1ccc(CCC(C)(C)C)c(Cl)c1 (single isomer, unassigned) [Example 233] | 
78 nM | 58 nM | CC(C)C1=CN(C2CCCC2C(=O)O)C(=O)N[C@@]1(C)c1ccc(CCC(C)(C)C)c(Cl)c1 (single isomer, unassigned) [Example 242] | 
1220 nM | 543 nM | CC(C)C1=CN(C2CCCC2C(=O)O)C(=O)N[C@@]1(C)c1ccc(CCC(C)(C)C)c(Cl)c1 (single isomer, unassigned) [Example 243] | 
28 nM | 28 nM | CC(C)C1=CN(C2CCCC(C(=O)O)C2)C(=O)N[C@@]1(C)c1ccc(CCC(C)(C)C)c(Cl)c1 (single isomer, unassigned) [Example 254] | 
273 nM | 296 nM | CC(C)C1=CN(C2CCCC(C(=O)O)C2)C(=O)N[C@@]1(C)c1ccc(CCC(C)(C)C)c(Cl)c1 (single isomer, unassigned) [Example 255] | 
22 nM | 26 nM | CC(C)C1=CN(C2CCCC(C(=O)O)C2)C(=O)N[C@@]1(C)c1ccc(CCC(C)(C)C)c(Cl)c1 (single isomer, unassigned) [Example 256] | 
165 nM | 115 nM | CC(C)C1=CN(C2CCCC(C(=O)O)C2)C(=O)N[C@@]1(C)c1ccc(CCC(C)(C)C)c(Cl)c1 (single isomer, unassigned) [Example 257] | 
13 nM | 13 nM | CC(C)C1=CN(C2CCC(C(=O)O)C2)C(=O)N[C@@]1(C)c1ccc(CCC(C)(C)C)c(Cl)c1 (single isomer, unassigned) [Example 278] | 
16 nM | 22 nM | CC(C)C1=CN(C2CCC(C(=O)O)C2)C(=O)N[C@@]1(C)c1ccc(CCC(C)(C)C)c(Cl)c1 (single isomer, unassigned) [Example 279] | 
26 nM | 42 nM | CC(C)C1=CN(C2CCC(C(=O)O)C2)C(=O)N[C@@]1(C)c1ccc(CCC(C)(C)C)c(Cl)c1 (single isomer, unassigned) [Example 280] | 
